Values joined by “and” are separate entries in the source; they are usually repeats but may differ in a detail not shown here. Equal values may be shown once. “Also recorded” adds a separate entry of the source. Read-outs that look alike come from different tables or passages of the source.
What was measured:
CFTR = conditions: cited from earlier work
HEK-293 WT cells = assay: Regulatory volume decrease (RVD) after hypotonic challenge, calcein fluorescence self-quenching; format: cell-based, human; conditions: for RVD inhibition at 10 μM (%) / inhibition at 10 µM: 10 μM inhibitor, after 30 min; for Effect on RVD at 30 μM: 30 μM inhibitor; for inhibition at 10 µM: Homo sapiens, HEK293, 0.5 h
Experimental: Measurements of changes in cell volume were performed using the calcein fluorescence self-quenching method. Briefly, calcein at high concentrations undergoes spontaneous self-quenching, and its fluorescence intensity decreases with increasing calcein concentration ([Capó-Aponte et al., 2005]). The variation in the fluorescence due to self-quenching indirectly reflects the volume of the cell.
HEK-293 WT and HEK-293 LRRC8-KO cells were cultured on polylysine-coated 24-well plates for 2 days. The cells were then loaded for 40 min with a solution containing 10 μM calcein-AM (Sigma–Aldrich) and washed 3 times with 1 ml of isotonic medium containing (in mM) 145 NaCl, 5 KCl, 1 MgCl2, 1 CaCl2, 10 glucose, and 10 HEPES pH 7.4 (300 mOsm.l^-1). Under this control experimental condition, basal fluorescence was measured every 90 s for 10 min using a plate reader (Ex: 460 nm, Em: 520 nm; Synergy HT, Biotek). After the baseline recording period (10 min), the medium was exchanged and replaced with iso- or hypo-osmotic bath solution adjusted to 200, 150, or 100 mOsm.l^-1. The change in fluorescence induced by replacement of the medium was then recorded over the following 50 min. The experiments were performed under control conditions and in the presence of various concentrations of inhibitors. The percent inhibition resulting from exposure of the cells to solutions containing a concentration of 10 μM for each inhibitor was calculated after maintaining the cells in hypotonic bath solution in the presence of the inhibitor for 30 min.

LRRC8/VRAC = target: T1, LRRC8/VRAC (Homo sapiens, UniProt Q8IWT6); assay: Patch-clamp whole-cell recording of hypotonicity-activated VRAC/LRRC8 chloride current (ICl,swell); format: cell-based; conditions: for inhibition at 10 µM / Inhibition at 10 μM (%) of chloride conductance: 10 μM inhibitor, -100 mV; for inhibition at 10 µM: read-out: Inhibition at 10 μM (%) of chloride conductance; for Hill coefficient (chloride conductance): WT HEK-293, fitted concentration-response curve at -100 mV; for IC50: read-out: IC50 (chloride conductance); for inhibition at 20 µM / Effect on hypotonic-activated Cl- currents at 20 μM: 20 μM inhibitor
T1 construct: tested in wild-type HEK-293 cells expressing LRRC8 proteins; endogenous in cells; host or cells: wild-type HEK-293 cells
T1 sequence (Q8IWT6 1-810): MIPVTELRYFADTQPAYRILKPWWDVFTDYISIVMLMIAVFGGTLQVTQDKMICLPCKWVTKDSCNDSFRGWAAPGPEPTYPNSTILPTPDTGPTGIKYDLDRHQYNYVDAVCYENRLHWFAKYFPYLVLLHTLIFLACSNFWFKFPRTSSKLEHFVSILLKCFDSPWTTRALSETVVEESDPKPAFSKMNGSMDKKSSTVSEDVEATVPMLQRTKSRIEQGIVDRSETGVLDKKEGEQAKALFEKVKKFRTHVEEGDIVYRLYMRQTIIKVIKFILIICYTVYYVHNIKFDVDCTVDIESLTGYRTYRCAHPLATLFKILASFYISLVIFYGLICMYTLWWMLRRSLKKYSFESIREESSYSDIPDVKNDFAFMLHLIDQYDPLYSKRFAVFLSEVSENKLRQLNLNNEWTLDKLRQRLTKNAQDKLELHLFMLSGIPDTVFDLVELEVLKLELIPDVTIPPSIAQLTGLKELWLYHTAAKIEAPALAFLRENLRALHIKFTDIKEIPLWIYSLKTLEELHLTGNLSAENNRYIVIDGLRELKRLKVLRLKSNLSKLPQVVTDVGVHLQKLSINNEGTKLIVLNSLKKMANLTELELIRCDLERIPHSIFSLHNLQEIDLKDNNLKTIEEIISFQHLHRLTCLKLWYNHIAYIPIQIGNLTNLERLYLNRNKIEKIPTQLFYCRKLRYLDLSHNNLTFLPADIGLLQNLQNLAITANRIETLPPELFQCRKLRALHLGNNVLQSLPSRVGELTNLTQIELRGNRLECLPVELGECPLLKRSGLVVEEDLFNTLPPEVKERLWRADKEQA
T1 sequence (Q7L1W4 1-858 partner): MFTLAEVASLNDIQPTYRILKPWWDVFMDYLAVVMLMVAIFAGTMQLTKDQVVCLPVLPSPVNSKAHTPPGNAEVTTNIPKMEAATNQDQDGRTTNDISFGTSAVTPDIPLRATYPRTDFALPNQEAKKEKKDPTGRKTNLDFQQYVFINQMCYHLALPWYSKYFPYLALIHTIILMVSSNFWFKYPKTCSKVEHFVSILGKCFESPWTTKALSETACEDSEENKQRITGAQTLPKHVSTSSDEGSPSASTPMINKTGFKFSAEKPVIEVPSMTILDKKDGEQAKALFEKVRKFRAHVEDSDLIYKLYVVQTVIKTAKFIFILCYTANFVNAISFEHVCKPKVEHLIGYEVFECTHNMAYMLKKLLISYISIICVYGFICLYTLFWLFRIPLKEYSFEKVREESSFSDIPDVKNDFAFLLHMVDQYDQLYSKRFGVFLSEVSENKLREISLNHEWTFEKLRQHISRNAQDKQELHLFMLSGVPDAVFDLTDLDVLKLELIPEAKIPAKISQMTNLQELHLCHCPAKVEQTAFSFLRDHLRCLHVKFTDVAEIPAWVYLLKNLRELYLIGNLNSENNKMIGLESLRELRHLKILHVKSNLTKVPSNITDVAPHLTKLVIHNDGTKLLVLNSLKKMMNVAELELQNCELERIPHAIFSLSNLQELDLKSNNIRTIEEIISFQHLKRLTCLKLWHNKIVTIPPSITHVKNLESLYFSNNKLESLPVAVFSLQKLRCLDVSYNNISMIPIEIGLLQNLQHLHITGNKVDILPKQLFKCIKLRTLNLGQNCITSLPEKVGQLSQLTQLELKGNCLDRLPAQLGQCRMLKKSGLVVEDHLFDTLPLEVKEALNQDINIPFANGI
Experimental: The ruptured-whole-cell configuration of the patch-clamp technique was used to measure the activation of VRAC conductance during hypotonic experimental conditions. Cell currents and cell capacitances were recorded using an EPC 10 amplifier [HEKA Elektronik, Lambrecht (Pfalz), Germany]. The membrane potential of the cells was held at -50 mV, and 400-ms pulses from -100 to +100 mV were applied in 20-mV increments. The I/V relationships were expressed as the mean current amplitudes measured at all potentials at 6–10 ms after the pulse onset.
The pipette solution contained (in mM) 140 NMDGCl, 10 HEPES (pH 7.4, HCl), 5 EGTA and 5 MgATP (290 mOsm.l^-1). The normal NMDGCl bath solution contained (in mM) 140 NMDGCl, 10 HEPES (pH 7.4, HCl), 1 CaCl2, 1 MgCl2, and ∼70 mannitol (340 mOsm.l^-1). This solution was designed to prevent the spontaneous activation of VRAC currents. Hypo-osmotic NMDGCl solution (270 mOsm.l^-1) was obtained by removing the mannitol from the NMDGCl bath solution.
Patch-clamp whole-cell recordings were performed in iso-osmotic bath solution (control condition), and the solution was rapidly exchanged to the hypo-osmotic solution. The hypotonic condition was maintained until the LRRC8/VRAC current had stabilized at its maximal value (3–6 min). The percent inhibition at each concentration of inhibitor was calculated at -100 mV holding potentials after at least 2 min of constant perfusion.
Concentration-response curves, IC50 and Hill slope were fitted and determined using the following equations:
Span=Top−Bottom y=Bottom+(Top−Bottom)/1+10^(LogIC50−x)^*Hill Slope

CaCC = system: CaCC; design: method as in Namkung et al. (2013); conditions: ref Namkung et al. (2013); cited from earlier work
ICl,swell = system: ICl,swell; design: method as in Decher et al. (2001); conditions: ref Decher et al. (2001); cited from earlier work
[1] = system: other chloride channels (CFTR, CaCC, ClC); design: method as in Decher et al. (2001); conditions: 10 μM; ref Decher et al. (2001); cited from earlier work
[2] = 100 mOsm.l^-1 hypotonic challenge, 10 µM
[3] = 100 mOsm.l^-1 hypotonic challenge
[4] = whole-cell, WT HEK-293, hypotonic solution 270 mOsm.l^-1, calculated at -100 mV

| SMILES | RVD inhibition at 10 μM (%) (HEK-293 WT cells; [2]) | Effect on RVD at 30 μM (HEK-293 WT cells; [3]) | inhibition at 10 µM (HEK-293 WT cells; [3]) [%] | inhibition at 10 µM (LRRC8/VRAC; whole-cell) [%] | Hill coefficient (chloride conductance) (LRRC8/VRAC; whole-cell) | IC50 (LRRC8/VRAC; [4]) | inhibition at 20 µM (LRRC8/VRAC; whole-cell) [%] | Effect on hypotonic-activated Cl- currents at 20 μM (LRRC8/VRAC; whole-cell) | other results |
| --- | --- | --- | --- | --- | --- | --- | --- | --- | --- |
| Cc1ccc(C2Nc3ccccc3-n3c(-c4ccccc4)c4c(=O)n(C)c(=O)n(C)c4c32)o1 (stereo not shown) [PPQ-102] | 29.8 ± 5.9 | fully inhibited RVD | 30 ± 6 | 18.3 ± 11.3 | 2.2 ± 1.2 | 20 µM and 19.6 µM |  |  | IC50 (CFTR; ref Tradtrantip et al., 2009, read-out: IC50 (CFTR)): < 0.1 µM; Effect on ICl,swell at 1 μM (LRRC8/VRAC; 1 μM inhibitor, whole-cell): ineffective; inhibition at 30 µM (LRRC8/VRAC; 30 μM inhibitor, whole-cell): > 85% |
| CCc1c(C)nc(SCC(=O)Nc2nc(-c3ccc(OC)cc3)cs2)[nH]c1=O [T16Ainh-A01] | 39.8 ± 9.6 | maximal effect | 40 ± 10 | 58.4 ± 2 | 1.5 ± 0.6 | 6 µM and 5.5 µM |  |  | IC50 (CaCC): 1 µM; inhibition at 3 µM (LRRC8/VRAC; 3 μM inhibitor, whole-cell, read-out: Inhibition of hypotonically activated Cl- current at 3 μM): 23 ± 5% |
| O=C(CNc1ccc2ccccc2c1)N/N=C/c1cc(Br)c(O)c(Br)c1O [GlyH-101] |  |  |  | 46.6 ± 8.8 | 0.9 ± 0.4 | 10 µM and 9.5 µM | > 85 |  | IC50 (CFTR; ref Muanprasat et al., 2004, read-out: IC50 for CFTR): ~5 µM |
| O=C(O)c1ccc(/C=C2\SC(=S)N(c3cccc(C(F)(F)F)c3)C2=O)cc1 [CFTRinh-172] |  |  |  |  |  |  |  | minor effect | IC50 (CFTR; ref Ma et al., 2002, read-out: IC50 (CFTR)): 0.3 µM; RVD inhibition at 10 μM (%) (HEK-293 WT cells; [3]): No effect; Effect on RVD at up to 20 μM (HEK-293 WT cells; concentrations of up to 20 μM): no significant effect; Effect on RVD at doses lower than 30 μM (HEK-293 WT cells; lower doses than 30 μM): ineffective; Inhibition at 10 μM (%) of chloride conductance (LRRC8/VRAC; whole-cell): No effect; Effect on hypotonic-activated Cl- currents at up to 10 μM (LRRC8/VRAC; concentrations of up to 10 μM, whole-cell): almost no effect; Effect on VRAC current at up to 20 μM (LRRC8/VRAC; concentrations of up to 20 μM): no significant effect; IC50 (chloride conductance) (LRRC8/VRAC; [4]): No effect |
| CCCCC1(C2CCCC2)Cc2cc(OCCCC(=O)O)c(Cl)c(Cl)c2C1=O (stereo not shown) [DCPIB, 4-(2-butyl-6,7-dichlor-2-cyclopentyl-indan-1-on-5-yl) oxybutyric acid] | 35.8 ± 3.1 |  | 36 ± 3 | 82.7 ± 3.2 | 2.9 ± 1.1 | 5 µM and 4.8 µM | > 90 | full blockade | Effect on RVD at 20 μM (HEK-293 WT cells; 20 μM inhibitor, 100 mOsm.l^-1 hypotonic challenge): maximal effect; also recorded: completely impaired volume regulation; Block of ICl,swell at 10 μM (ICl,swell): more than 80%; Effect on other chloride channels (CFTR, CaCC, ClC) [1]: without any effect |
| O=C(O)c1cccnc1Nc1cccc(C(F)(F)F)c1 [NFA, niflumic acid] | 19.9 ± 7.2 | maximally inhibited the RVD process | 20 ± 7 | 23 ± 4 | 0.8 ± 0.4 | 55 µM and 55.2 µM |  |  | Inhibition at 10 μM (%) of chloride conductance (LRRC8/VRAC; whole-cell, 10 µM): 22.5 ± 4.0%; Effect on hypotonically activated Cl- current at 100 μM (LRRC8/VRAC; 100 μM inhibitor, whole-cell): maximal inhibitory effect |

Source: article PMC5449500, “Comparative Effects of Chloride Channel Inhibitors on LRRC8/VRAC-Mediated Chloride Conductance” (Frontiers in Pharmacology, 2017)
